The text below walks through data of patent publication US20240067693A1, “POLYPEPTIDES AND USES THEREOF” (MEDIMMUNE LIMITED, priority 2020, published 2024).

Numbered stars: 1 amine (or outer) side, 2 acyl side, 3 side chain; on linkers, the order of the positions; unused ones are H or OH. Bridge positions count the residues as written; N and C are the ends. Square brackets hold non-standard residues; d marks the D form. Side chains are listed from the residue outwards. Peptide text beside a SMILES is read from it. * marks the point of attachment. C18 diacid = O=C(O)CCCCCCCCCCCCCCCCC(=O)*; γGlu = O=C(O)[C@H](CCC(=O)[*:2])N[*:1]; Dab = NCC[C@H](N)C(=O)O; Aib = CC(C)(N)C(=O)O

Test [1] has as its target T1, human amylin receptor (calcitonin receptor co-expressed with receptor activity modifying protein, RAMP3) (hAMYR3) (Homo sapiens, UniProt O60896+P30988).
T1 construct: expressed in transfected cells
T1 sequence (P30988 25-474): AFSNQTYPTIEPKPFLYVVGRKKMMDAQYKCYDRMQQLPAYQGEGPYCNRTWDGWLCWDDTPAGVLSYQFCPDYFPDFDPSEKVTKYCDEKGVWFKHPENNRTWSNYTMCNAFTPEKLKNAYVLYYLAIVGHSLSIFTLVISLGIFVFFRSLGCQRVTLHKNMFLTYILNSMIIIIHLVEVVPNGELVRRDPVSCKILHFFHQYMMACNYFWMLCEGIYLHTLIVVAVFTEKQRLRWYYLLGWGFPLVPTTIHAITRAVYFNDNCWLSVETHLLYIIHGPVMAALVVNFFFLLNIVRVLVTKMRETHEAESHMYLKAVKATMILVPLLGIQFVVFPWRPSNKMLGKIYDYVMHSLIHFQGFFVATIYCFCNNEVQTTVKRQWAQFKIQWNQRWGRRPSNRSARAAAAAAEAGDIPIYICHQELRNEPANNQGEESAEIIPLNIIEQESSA
T1 sequence (O60896 24-148 partner): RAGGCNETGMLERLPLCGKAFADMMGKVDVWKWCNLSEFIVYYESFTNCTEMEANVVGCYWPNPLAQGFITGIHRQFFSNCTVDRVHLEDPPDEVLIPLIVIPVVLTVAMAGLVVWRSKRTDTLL
Briefly: cAMP production in 1321N1 cells with stable recombinant expression of human amylin receptor (hAMYR3). Particulars: for Ratio (selectivity hAMYR vs hCTR, ratio of EC50 values at the two receptors): EC50 hCTR / EC50 hAMYR3; for EC50: cAMP, 1321N1 cells, assay buffer with 0.1% BSA, read-out: EC50 (pM) hAMYR3. Type of test: cell-based. A digest of the protocol: (§1)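 Thawed cells in HBSS/0.1% BSA/25 mM HEPES pH 7.4 with 0.5 mM IBMX were incubated with peptides 30 min at room temperature; cAMP read by HTRF. EC50 from 4-parameter fit of % activation relative to maximal amylin or calcitonin effect.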

Test [2] deals with T2, human calcitonin receptor (hCTR) (Homo sapiens, UniProt P30988).
T2 construct: expressed in transfected cells
T2 sequence (P30988 25-474): T1 sequence (P30988 25-474)
Briefly: cAMP production in 1321N1 cells with stable recombinant expression of human calcitonin receptor (hCTR). Type of test: cell-based. Particulars: cAMP, 1321N1 cells, assay buffer with 0.1% BSA; read-out: EC50 (pM) hCTR. The essentials:
as §1

Take `CC[C@H](C)[C@H](NC(=O)[C@@H]1CCCN1C(=O)CNC(=O)[C@H](Cc1ccccc1)NC(=O)[C@H](CC(N)=O)NC(=O)C(C)(C)NC(=O)[C@H](CO)NC(=O)[C@H](CO)NC(=O)[C@H](Cc1c[nH]cn1)NC(=O)[C@@H](NC(=O)[C@H](CC(C)C)NC(=O)[C@H](Cc1ccccc1)NC(=O)[C@H](CC(N)=O)NC(=O)[C@H](C)NC(=O)[C@H](CC(C)C)NC(=O)[C@H](CCCNC(=N)N)NC(=O)[C@H](CCC(N)=O)NC(=O)[C@@H](NC(=O)[C@H](C)NC(=O)[C@@H]1CSSC[C@H](NC(=O)[C@H](CCCCN)NC(=O)[C@@H](N)CCCCNC(=O)CC[C@H](NC(=O)CCCCCCCCCCCCCCCCC(=O)O)C(=O)O)C(=O)N[C@@H](CC(N)=O)C(=O)N[C@@H]([C@@H](C)O)C(=O)N[C@@H](C)C(=O)N[C@@H]([C@@H](C)O)C(=O)N1)[C@@H](C)O)C(C)C)C(=O)N[C@@H](CC(C)C)C(=O)N1CCC[C@H]1C(=O)N1CCC[C@H]1C(=O)N[C@H](C(=O)N[C@@H](CC(N)=O)C(=O)N[C@H](C(=O)NCC(=O)NC(C)(C)C(=O)N[C@@H](CC(N)=O)C(=O)N[C@H](C(=O)N[C@@H](Cc1ccc(O)cc1)C(N)=O)[C@@H](C)O)C(C)C)[C@@H](C)O` [Peptide 84, K(γE-C18diacid)K[CNTATC]ATQRLANFLVHSS(Aib)NFGPILPPTNVG(Aib)NTY-amide] (H-K([γGlu-C18 diacid])KCNTATCATQRLANFLVHSS[Aib]NFGPILPPTNVG[Aib]NTY-NH2; disulfide 3-8; N-terminus assumed): in test [1], the “Ratio (selectivity hAMYR vs hCTR, ratio of EC50 values at the two receptors)” value is 3 and the EC50 was 118 pM. Moreover, the EC50 in test [2] worked out at 401 pM.
On the same counts, the results for `CC[C@H](C)[C@H](NC(=O)[C@@H]1CCCN1C(=O)C(C)(C)NC(=O)[C@H](Cc1ccccc1)NC(=O)[C@H](CC(N)=O)NC(=O)[C@H](CC(N)=O)NC(=O)[C@H](CO)NC(=O)[C@H](CO)NC(=O)[C@H](Cc1c[nH]cn1)NC(=O)[C@@H](NC(=O)[C@H](CC(C)C)NC(=O)[C@H](Cc1ccccc1)NC(=O)[C@H](CC(N)=O)NC(=O)[C@H](C)NC(=O)[C@H](CC(C)C)NC(=O)[C@H](CCCNC(=N)N)NC(=O)[C@H](CCC(N)=O)NC(=O)[C@@H](NC(=O)[C@H](C)NC(=O)[C@@H]1CSSC[C@H](NC(=O)[C@H](CCCCN)NC(=O)[C@@H](N)CCCCNC(=O)CC[C@H](NC(=O)CCCCCCCCCCCCCCCCC(=O)O)C(=O)O)C(=O)N[C@@H](CC(N)=O)C(=O)N[C@@H]([C@@H](C)O)C(=O)N[C@@H](C)C(=O)N[C@@H]([C@@H](C)O)C(=O)N1)[C@@H](C)O)C(C)C)C(=O)N[C@@H](CC(C)C)C(=O)N1CCC[C@H]1C(=O)N1CCC[C@H]1C(=O)N[C@H](C(=O)N[C@@H](CC(N)=O)C(=O)N[C@H](C(=O)NCC(=O)N[C@@H](CO)C(=O)N[C@@H](CC(N)=O)C(=O)N[C@H](C(=O)N[C@@H](Cc1ccc(O)cc1)C(N)=O)[C@@H](C)O)C(C)C)[C@@H](C)O` [Peptide 110, K(γE-C18diacid)K[CNTATC]ATQRLANFLVHSSNNF(Aib)PILPPTNVGSNTY-amide] (H-K([γGlu-C18 diacid])KCNTATCATQRLANFLVHSSNNF[Aib]PILPPTNVGSNTY-NH2; disulfide 3-8; N-terminus assumed) are 3, 204 pM and 541 pM.
On the same counts, the results for `CC[C@H](C)[C@H](NC(=O)[C@@H]1CCCN1C(=O)CNC(=O)[C@H](Cc1ccccc1)NC(=O)[C@H](CC(N)=O)NC(=O)C(C)(C)NC(=O)[C@H](CO)NC(=O)[C@H](CO)NC(=O)[C@H](Cc1c[nH]cn1)NC(=O)[C@@H](NC(=O)[C@H](CC(C)C)NC(=O)[C@H](Cc1ccccc1)NC(=O)[C@H](CC(N)=O)NC(=O)[C@H](C)NC(=O)[C@H](CC(C)C)NC(=O)[C@H](CCCNC(=N)N)NC(=O)[C@H](CCC(N)=O)NC(=O)[C@@H](NC(=O)[C@H](C)NC(=O)[C@@H]1CSSC[C@H](NC(=O)[C@@H](N)CCCCNC(=O)CC[C@H](NC(=O)CCCCCCCCCCCCCCCCC(=O)O)C(=O)O)C(=O)N[C@@H](CC(N)=O)C(=O)N[C@@H]([C@@H](C)O)C(=O)N[C@@H](C)C(=O)N[C@@H]([C@@H](C)O)C(=O)N1)[C@@H](C)O)C(C)C)C(=O)N[C@@H](CC(C)C)C(=O)N1CCC[C@H]1C(=O)N1CCC[C@H]1C(=O)N[C@H](C(=O)N[C@@H](CC(N)=O)C(=O)N[C@H](C(=O)NCC(=O)N[C@@H](CO)C(=O)N[C@@H](CC(N)=O)C(=O)N[C@H](C(=O)N[C@@H](Cc1ccc(O)cc1)C(N)=O)[C@@H](C)O)C(C)C)[C@@H](C)O` [Peptide 56, K(γE-C18diacid)[CNTATC]ATQRLANFLVHSS(Aib)NFGPILPPTNVGSNTY-amide] (H-K([γGlu-C18 diacid])CNTATCATQRLANFLVHSS[Aib]NFGPILPPTNVGSNTY-NH2; disulfide 2-7; N-terminus assumed) are 7, 70 pM and 493 pM.
Turning to `CC[C@H](C)[C@H](NC(=O)[C@@H]1CCCN1C(=O)CNC(=O)[C@H](Cc1ccccc1)NC(=O)[C@H](CC(N)=O)NC(=O)[C@H](CC(N)=O)NC(=O)[C@H](CO)NC(=O)[C@H](CO)NC(=O)[C@H](Cc1c[nH]cn1)NC(=O)C(C)(C)NC(=O)[C@H](CC(C)C)NC(=O)[C@H](Cc1ccccc1)NC(=O)[C@H](CC(N)=O)NC(=O)[C@H](C)NC(=O)[C@H](CC(C)C)NC(=O)[C@H](CCCNC(=N)N)NC(=O)[C@H](CCC(N)=O)NC(=O)[C@@H](NC(=O)[C@H](C)NC(=O)[C@@H]1CSSC[C@H](NC(=O)[C@H](CCCCN)NC(=O)[C@@H](N)CCCCNC(=O)CC[C@H](NC(=O)CCCCCCCCCCCCCCCCC(=O)O)C(=O)O)C(=O)N[C@@H](CC(N)=O)C(=O)N[C@@H]([C@@H](C)O)C(=O)N[C@@H](C)C(=O)N[C@@H]([C@@H](C)O)C(=O)N1)[C@@H](C)O)C(=O)N[C@@H](CC(C)C)C(=O)N1CCC[C@H]1C(=O)N1CCC[C@H]1C(=O)N[C@H](C(=O)N[C@@H](CC(N)=O)C(=O)N[C@H](C(=O)NCC(=O)NC(C)(C)C(=O)N[C@@H](CC(N)=O)C(=O)N[C@H](C(=O)N[C@@H](Cc1ccc(O)cc1)C(N)=O)[C@@H](C)O)C(C)C)[C@@H](C)O` [Peptide 101, K(γE-C18diacid)K[CNTATC]ATQRLANFL(Aib)HSSNNFGPILPPTNVG(Aib)NTY-amide] (H-K([γGlu-C18 diacid])KCNTATCATQRLANFL[Aib]HSSNNFGPILPPTNVG[Aib]NTY-NH2; disulfide 3-8; N-terminus assumed), in test [1], the “Ratio (selectivity hAMYR vs hCTR, ratio of EC50 values at the two receptors)” value is 2 and the EC50 is 177 pM. The EC50 in test [2] was 441 pM.
The matching figures for `CC[C@H](C)[C@H](NC(=O)[C@@H]1CCCN1C(=O)CNC(=O)[C@H](Cc1ccccc1)NC(=O)[C@H](CC(N)=O)NC(=O)[C@H](CCN)NC(=O)[C@H](CO)NC(=O)[C@H](CO)NC(=O)[C@H](Cc1c[nH]cn1)NC(=O)C(C)(C)NC(=O)[C@H](CC(C)C)NC(=O)[C@H](Cc1ccccc1)NC(=O)[C@H](CC(N)=O)NC(=O)[C@H](C)NC(=O)[C@H](CC(C)C)NC(=O)[C@H](CCCNC(=N)N)NC(=O)[C@H](CCC(N)=O)NC(=O)[C@@H](NC(=O)[C@H](C)NC(=O)[C@@H]1CSSC[C@H](NC(=O)[C@@H](N)CCCCNC(=O)CC[C@H](NC(=O)CCCCCCCCCCCCCCCCC(=O)O)C(=O)O)C(=O)N[C@@H](CC(N)=O)C(=O)N[C@@H]([C@@H](C)O)C(=O)N[C@@H](C)C(=O)N[C@@H]([C@@H](C)O)C(=O)N1)[C@@H](C)O)C(=O)N[C@@H](CC(C)C)C(=O)N1CCC[C@H]1C(=O)N1CCC[C@H]1C(=O)N[C@H](C(=O)N[C@@H](CC(N)=O)C(=O)N[C@H](C(=O)NCC(=O)N[C@@H](CO)C(=O)N[C@@H](CC(N)=O)C(=O)N[C@H](C(=O)N[C@@H](Cc1ccc(O)cc1)C(N)=O)[C@@H](C)O)C(C)C)[C@@H](C)O` [Peptide 150, K(γE-C18diacid)[CNTATC]ATQRLANFL(Aib)HSS(Dab)NFGPILPPTNVGSNTY-amide] (H-K([γGlu-C18 diacid])CNTATCATQRLANFL[Aib]HSS[Dab]NFGPILPPTNVGSNTY-NH2; disulfide 2-7; N-terminus assumed): 23.4, 179 pM and 4180 pM.
